The assay has as its system cholesterol biosynthesis. Put plainly: Inhibition of cholesterol biosynthesis (method of J. Biol. Chem. 234, 2835 (1959)). Format: biochemical. The settings on record: method of Journal of Biological Chemistry, 234, 2835 (1959). The text has this:
The inhibitory activities of certain of the compounds of the invention, in terms of the concentration in μg/ml required to inhibit cholesterol biosynthesis by 50% [measured by the method described in the Journal of Biological Chemistry, 234, 2835 (1959)], are as follows: […]

As for `CC[C@H](C)C(=O)O[C@H]1CCC=C2C=C[C@H](C)[C@H](CC[C@@H]3C[C@@H](O)CC(=O)O3)[C@H]21` [ML-236B lactone, reference compound], the “concentration required to inhibit cholesterol biosynthesis by 50%” value came out at 0.010 µg/mL. As for `CC[C@H](C)C(=O)O[C@H]1CC=CC2=CC(OC)[C@H](C)[C@H](CC[C@@H]3C[C@@H](O)CC(=O)O3)[C@H]21` (stereo partly drawn) [6-methoxy-IsoML-236B lactone], the figure is 0.015 µg/mL; as for `CC[C@H](C)C(=O)O[C@H]1CC=CC2=CC(OC)[C@H](C)[C@H](CC[C@@H](O)C[C@@H](O)CC(=O)O)[C@H]21` (stereo partly drawn) [Sodium 6-methoxy-IsoML-236B carboxylate, sodium 6-methoxy-IsoML-236B carboxylate], 0.0044 µg/mL.

For the origin of these results see patent US4447626A, “ML-236B Derivatives” (Sankyo Company Limited, priority 1981, dated 1984).
